The target of assay [1] is α6-100R-β3γ2 (α6β3γ2s) (Rattus norvegicus, UniProt P18508+P30191). As to the kind of experiment: radioligand association/dissociation kinetics, filtration. The format is binding.
Assay [2] has as its target α6-100R-β3γ2 (α6β3γ2s) (Rattus norvegicus, UniProt P18508+P30191, P30191:R119Q). Described as above. In kind it is binding.

Molecules are shown by their SMILES.

Chain of α6-100R-β3γ2 (α6β3γ2s) (Rattus norvegicus, UniProt P18508+P30191, P30191:R119Q) (P30191 20-453 R119Q): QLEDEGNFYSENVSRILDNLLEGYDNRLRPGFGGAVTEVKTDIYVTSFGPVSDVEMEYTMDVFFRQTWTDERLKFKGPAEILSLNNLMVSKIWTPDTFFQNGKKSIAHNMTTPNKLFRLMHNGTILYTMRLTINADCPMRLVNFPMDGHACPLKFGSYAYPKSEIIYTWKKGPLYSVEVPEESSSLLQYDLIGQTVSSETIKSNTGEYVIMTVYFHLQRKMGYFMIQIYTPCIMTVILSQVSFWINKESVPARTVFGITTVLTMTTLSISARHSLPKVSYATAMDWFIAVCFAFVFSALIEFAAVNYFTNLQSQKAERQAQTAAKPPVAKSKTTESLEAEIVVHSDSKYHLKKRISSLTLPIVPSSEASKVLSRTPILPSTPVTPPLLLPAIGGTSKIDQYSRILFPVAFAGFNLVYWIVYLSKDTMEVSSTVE
Chain of α6-100R-β3γ2 (α6β3γ2s) (Rattus norvegicus, UniProt P18508+P30191, P30191:R119Q) (P18508 39-466): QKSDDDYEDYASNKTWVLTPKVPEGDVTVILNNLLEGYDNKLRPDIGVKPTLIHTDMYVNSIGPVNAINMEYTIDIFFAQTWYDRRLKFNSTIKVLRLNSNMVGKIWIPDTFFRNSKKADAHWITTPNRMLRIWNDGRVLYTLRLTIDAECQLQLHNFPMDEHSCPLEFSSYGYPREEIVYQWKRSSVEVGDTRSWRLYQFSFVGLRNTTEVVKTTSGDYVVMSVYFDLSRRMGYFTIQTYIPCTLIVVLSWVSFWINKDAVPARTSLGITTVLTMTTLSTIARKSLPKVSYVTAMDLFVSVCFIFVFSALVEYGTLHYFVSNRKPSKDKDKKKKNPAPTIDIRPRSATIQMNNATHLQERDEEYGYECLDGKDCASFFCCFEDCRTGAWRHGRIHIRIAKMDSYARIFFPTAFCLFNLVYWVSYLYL
Chain of α6-100R-β3γ2 (α6β3γ2s) (Rattus norvegicus, UniProt P18508+P30191, P30191:R119Q) (P63079 26-473 partner): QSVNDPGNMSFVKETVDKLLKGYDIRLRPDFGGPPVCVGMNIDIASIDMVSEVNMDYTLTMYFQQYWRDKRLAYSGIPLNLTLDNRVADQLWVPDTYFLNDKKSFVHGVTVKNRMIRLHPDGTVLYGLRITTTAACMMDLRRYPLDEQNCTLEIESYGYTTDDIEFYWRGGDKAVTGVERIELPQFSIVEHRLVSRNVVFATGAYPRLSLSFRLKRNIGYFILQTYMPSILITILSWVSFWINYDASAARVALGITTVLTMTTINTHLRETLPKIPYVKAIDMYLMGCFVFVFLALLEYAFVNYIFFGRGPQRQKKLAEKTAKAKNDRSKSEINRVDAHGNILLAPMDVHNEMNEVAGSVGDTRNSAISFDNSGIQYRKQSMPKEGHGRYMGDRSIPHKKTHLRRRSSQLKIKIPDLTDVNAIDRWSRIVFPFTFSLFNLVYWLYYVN
Chain of α6-100R-β3γ2 (α6β3γ2s) (Rattus norvegicus, UniProt P18508+P30191) (P30191 20-453): as the sequence (P30191 20-453 R119Q) above, with Q100R counted along it
Chain of α6-100R-β3γ2 (α6β3γ2s) (Rattus norvegicus, UniProt P18508+P30191) (P18508 39-466): as the sequence (P18508 39-466) above
Chain of α6-100R-β3γ2 (α6β3γ2s) (Rattus norvegicus, UniProt P18508+P30191) (P63079 26-473 partner): as the sequence (P63079 26-473 partner) above

`CCOC(=O)c1ncn2c1CN(C)C(=O)c1cc(N=[N+]=[N-])ccc1-2` [[^3H]Ro 15-4513]: the dissociation constant Kd (as a rule, the free concentration of one partner at which half of the binding sites on the other are occupied at equilibrium, for simple one-to-one binding) came to 2.4 ± 0.4 nM on α6-100R-β3γ2 (α6β3γ2s) [1] and 1 ± 0.1 nM on α6-100R-β3γ2 (α6β3γ2s) [2].

The values are drawn from PMC3137752 (Alcohol (Fayetteville, N.Y.), 2010).
